From the supplement of paper PMC10307832

Columns and labels:
Assay in all cases: relative viability (nuclei count vs DMSO), 5 days (fraction); higher = more cells survive
201T = tested on: 201T
How it was run: (§1)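 Dosing by pin tool came one day after lung cancer cell lines were seeded in 1536-well plates, using either one drug or a fixed anchor-drug dose plus five library-drug doses (not always all listed) in √10 steps. After 5 days, nuclei were counted on 4× images. Relative viability is treated-well nuclei count divided by vehicle-well nuclei count, and values are medians of duplicate plates.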

BEN = tested on: BEN
How it was run: as §1

CAL-12T = tested on: CAL-12T
How it was run: as §1

COR-L 105 = tested on: COR-L 105
How it was run: as §1

H3255 = tested on: H3255
How it was run: as §1

HARA = tested on: HARA
How it was run: as §1

HCC-15 = tested on: HCC-15
How it was run: as §1

HCC-827 = tested on: HCC-827
How it was run: as §1

LC-2-ad = tested on: LC-2-ad
How it was run: as §1

LCLC-103H = tested on: LCLC-103H
How it was run: as §1

LK-2 = tested on: LK-2
How it was run: as §1

LU99A = tested on: LU99A
How it was run: as §1

LXF-289 = tested on: LXF-289
How it was run: as §1

NCI-H1437 = tested on: NCI-H1437
How it was run: as §1

NCI-H1651 = tested on: NCI-H1651
How it was run: as §1

NCI-H1792 = tested on: NCI-H1792
How it was run: as §1

NCI-H2085 = tested on: NCI-H2085
How it was run: as §1

NCI-H2228 = tested on: NCI-H2228
How it was run: as §1

NCI-H23 = tested on: NCI-H23
How it was run: as §1

NCI-H2405 = tested on: NCI-H2405
How it was run: as §1

NCI-H322M = tested on: NCI-H322M
How it was run: as §1

RERF-LC-KJ = tested on: RERF-LC-KJ
How it was run: as §1

UMC-11 = tested on: UMC-11
How it was run: as §1

Structure (SMILES): Cc1cnc(-c2cnc(NCCNc3ccc(C#N)cn3)nc2-c2ccc(Cl)cc2Cl)[nH]1 + Cc1nc(NC(=O)N2CCC[C@H]2C(N)=O)sc1-c1ccnc(C(C)(C)C(F)(F)F)c1 [Alpelisib] (partner 2 µM)
- relative viability (201T; first compound 0.08 µM): 1.07
- relative viability (201T; first compound 0.253 µM): 0.959
- relative viability (201T; first compound 0.8 µM): 1.01
- relative viability (201T; first compound 2.53 µM): 1.02
- relative viability (BEN; first compound 0.08 µM): 1.22
- relative viability (BEN; first compound 0.253 µM): 0.973
- relative viability (BEN; first compound 0.8 µM): 0.964
- relative viability (BEN; first compound 2.53 µM): 1.04
- relative viability (CAL-12T; first compound 0.08 µM): 1.2
- relative viability (CAL-12T; first compound 0.253 µM): 1.16
- relative viability (CAL-12T; first compound 0.8 µM): 1.2
- relative viability (CAL-12T; first compound 2.53 µM): 0.848
- relative viability (COR-L 105; first compound 0.08 µM): 0.994
- relative viability (COR-L 105; first compound 0.253 µM): 0.927
- relative viability (COR-L 105; first compound 0.8 µM): 1.11
- relative viability (COR-L 105; first compound 2.53 µM): 0.612
- relative viability (H3255; first compound 0.08 µM): 0.886
- relative viability (H3255; first compound 0.253 µM): 0.618
- relative viability (H3255; first compound 0.8 µM): 0.802
- relative viability (H3255; first compound 2.53 µM): 0.73
- relative viability (HARA; first compound 0.08 µM): 0.994
- relative viability (HARA; first compound 0.253 µM): 0.673
- relative viability (HARA; first compound 0.8 µM): 0.746
- relative viability (HARA; first compound 2.53 µM): 0.827
- relative viability (HCC-15; first compound 0.08 µM): 0.857
- relative viability (HCC-15; first compound 0.253 µM): 0.815
- relative viability (HCC-15; first compound 0.8 µM): 0.853
- relative viability (HCC-15; first compound 2.53 µM): 0.881
- relative viability (HCC-827; first compound 0.08 µM): 1.08
- relative viability (HCC-827; first compound 0.8 µM): 0.99
- relative viability (HCC-827; first compound 2.53 µM): 0.929
- relative viability (LC-2-ad; first compound 0.08 µM): 1.04
- relative viability (LC-2-ad; first compound 0.8 µM): 0.832
- relative viability (LC-2-ad; first compound 2.53 µM): 0.892
- relative viability (LCLC-103H; first compound 0.08 µM): 1.16
- relative viability (LCLC-103H; first compound 0.253 µM): 0.958
- relative viability (LCLC-103H; first compound 0.8 µM): 1.07
- relative viability (LCLC-103H; first compound 2.53 µM): 0.951
- relative viability (LK-2; first compound 0.08 µM): 1.21
- relative viability (LK-2; first compound 0.253 µM): 1.05
- relative viability (LK-2; first compound 0.8 µM): 1.13
- relative viability (LK-2; first compound 2.53 µM): 1.3
- relative viability (LU99A; first compound 0.08 µM): 0.606
- relative viability (LU99A; first compound 0.253 µM): 0.548
- relative viability (LU99A; first compound 0.8 µM): 0.557
- relative viability (LU99A; first compound 2.53 µM): 0.516
- relative viability (LXF-289; first compound 0.08 µM): 1.11
- relative viability (LXF-289; first compound 0.253 µM): 1
- relative viability (LXF-289; first compound 0.8 µM): 1.05
- relative viability (LXF-289; first compound 2.53 µM): 1.08
- relative viability (NCI-H1437; first compound 0.08 µM): 0.962
- relative viability (NCI-H1437; first compound 0.253 µM): 0.937
- relative viability (NCI-H1437; first compound 0.8 µM): 0.909
- relative viability (NCI-H1437; first compound 2.53 µM): 0.918
- relative viability (NCI-H1651; first compound 0.08 µM): 1.08
- relative viability (NCI-H1651; first compound 0.253 µM): 0.903
- relative viability (NCI-H1651; first compound 0.8 µM): 0.965
- relative viability (NCI-H1651; first compound 2.53 µM): 0.991
- relative viability (NCI-H1792; first compound 0.08 µM): 0.736
- relative viability (NCI-H1792; first compound 0.253 µM): 0.639
- relative viability (NCI-H1792; first compound 0.8 µM): 0.625
- relative viability (NCI-H1792; first compound 2.53 µM): 0.674
- relative viability (NCI-H2085; first compound 0.08 µM): 1.13
- relative viability (NCI-H2085; first compound 0.253 µM): 1.03
- relative viability (NCI-H2085; first compound 0.8 µM): 0.94
- relative viability (NCI-H2085; first compound 2.53 µM): 0.961
- relative viability (NCI-H2228; first compound 0.08 µM): 0.931
- relative viability (NCI-H2228; first compound 0.253 µM): 0.7
- relative viability (NCI-H2228; first compound 0.8 µM): 0.987
- relative viability (NCI-H2228; first compound 2.53 µM): 0.717
- relative viability (NCI-H23; first compound 0.08 µM): 0.819
- relative viability (NCI-H23; first compound 0.253 µM): 0.591
- relative viability (NCI-H23; first compound 0.8 µM): 0.818
- relative viability (NCI-H23; first compound 2.53 µM): 0.72
- relative viability (NCI-H2405; first compound 0.08 µM): 1.09
- relative viability (NCI-H2405; first compound 0.253 µM): 0.793
- relative viability (NCI-H2405; first compound 0.8 µM): 0.811
- relative viability (NCI-H2405; first compound 2.53 µM): 0.592
- relative viability (NCI-H322M; first compound 0.08 µM): 0.773
- relative viability (NCI-H322M; first compound 0.253 µM): 0.754
- relative viability (NCI-H322M; first compound 0.8 µM): 0.709
- relative viability (NCI-H322M; first compound 2.53 µM): 0.733
- relative viability (RERF-LC-KJ; first compound 0.08 µM): 0.984
- relative viability (RERF-LC-KJ; first compound 0.253 µM): 0.746
- relative viability (RERF-LC-KJ; first compound 0.8 µM): 0.775
- relative viability (RERF-LC-KJ; first compound 2.53 µM): 0.916
- relative viability (UMC-11; first compound 0.08 µM): 0.844
- relative viability (UMC-11; first compound 0.253 µM): 0.903
- relative viability (UMC-11; first compound 0.8 µM): 1.02
- relative viability (UMC-11; first compound 2.53 µM): 0.908
